Results: patent publication US6770596B1, “Fused tricyclic compounds, process for their preparation, and herbicidal compositions containing them” (Ishihara Sangyo Kaisha Ltd., priority 2002, dated 2004)

Key:
Format in all cases: in vivo
[1] = tested on: redroot pigweed (Amaranthus retroflexus, AMR); experiment: Pre-emerge test, redroot pigweed; conditions: 250 g ai/ha, 14 days after application, rating scale 0-100 (0 no damage, 100 complete death)
Outline: (§1)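 Compounds are applied in acetone to freshly sown soil (planted one day earlier) at 8 g ai/ha up to 1000 g ai/ha via track sprayer. Plants are assessed at 14 days on a 0–100 injury scale.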

[2] = tested on: velvetleaf (Abutilon theophrasti, ABT); experiment: Pre-emerge test, velvetleaf; conditions: 250 g ai/ha, 14 days after application, rating scale 0-100 (0 no damage, 100 complete death)
Outline: as §1

[3] = tested on: sicklepod (Cassia obtusifolia, CAO); experiment: Pre-emerge test, sicklepod; conditions: 250 g ai/ha, 14 days after application, rating scale 0-100 (0 no damage, 100 complete death)
Outline: as §1

[4] = tested on: ivyleaf morningglory (Ipomoea hederacea, IPH); experiment: Pre-emerge test, ivyleaf morningglory; conditions: 250 g ai/ha, 14 days after application, rating scale 0-100 (0 no damage, 100 complete death)
Outline: as §1

[5] = tested on: lambsquarters (Chenopodium album, CHA); experiment: Pre-emerge test, lambsquarters; conditions: 250 g ai/ha, 14 days after application, rating scale 0-100 (0 no damage, 100 complete death)
Outline: as §1

[6] = tested on: common ragweed (Ambrosia artemisiifolia L., AML); experiment: Pre-emerge test, common ragweed; conditions: 250 g ai/ha, 14 days after application, rating scale 0-100 (0 no damage, 100 complete death)
Outline: as §1

[7] = tested on: cocklebur (Xanthium strumariunt, XAS); experiment: Pre-emerge test, cocklebur; conditions: 250 g ai/ha, 14 days after application, rating scale 0-100 (0 no damage, 100 complete death)
Outline: as §1

[8] = tested on: green foxtail (Setaria viridis, SEV); experiment: Pre-emerge test, green foxtail; conditions: 250 g ai/ha, 14 days after application, rating scale 0-100 (0 no damage, 100 complete death)
Outline: as §1

[9] = tested on: barnyardgrass (Echinachloa crus-galli, ECC); experiment: Pre-emerge test, barnyardgrass; conditions: 250 g ai/ha, 14 days after application, rating scale 0-100 (0 no damage, 100 complete death)
Outline: as §1

[10] = tested on: johnsongrass (Sorghum halepense, SOH); experiment: Pre-emerge test, johnsongrass; conditions: 250 g ai/ha, 14 days after application, rating scale 0-100 (0 no damage, 100 complete death)
Outline: as §1

[11] = tested on: large crabgrass (Digitaria sanguinalis, DIS); experiment: Pre-emerge test, large crabgrass; conditions: 250 g ai/ha, 14 days after application, rating scale 0-100 (0 no damage, 100 complete death)
Outline: as §1

[12] = tested on: field corn (Zea mays L., var. Dekalb 535, CORN); experiment: Pre-emerge test, crop damage field corn; conditions: pre-emerge, 250 g ai/ha, 14 days after application, rating scale 0-100 (0 no damage, 100 complete death)
Outline: (§2)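 Seeds sown in sandy loam in 10 cm pots one day before pre-emergence spraying of acetone-dissolved compounds at 8–1000 g ai/ha (187 l/ha, track sprayer), greenhouse. Phytotoxicity rated visually 14 days after application on a 0–100 scale (0 no damage, 100 complete death).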

[13] = tested on: soybean (Glycine max L., var. Pella 86, SOY); experiment: Pre-emerge test, crop damage soybean; conditions: pre-emerge, 250 g ai/ha, 14 days after application, rating scale 0-100 (0 no damage, 100 complete death)
Outline: as §2

[14] = tested on: upland rice (Oryza sp., var.Tebonnet, RICE); experiment: Pre-emerge test, crop damage upland rice; conditions: pre-emerge, 250 g ai/ha, 14 days after application, rating scale 0-100 (0 no damage, 100 complete death)
Outline: as §2

[15] = tested on: wheat (Triticum aestivum); experiment: Pre-emerge test, crop damage wheat; conditions: pre-emerge, 250 g ai/ha, 14 days after application, rating scale 0-100 (0 no damage, 100 complete death)
Outline: as §2

[16] = tested on: redroot pigweed (Amaranthus retroflexus, AMR); experiment: Post-emerge test, redroot pigweed; conditions: 250 g ai/ha, 14 days after application, rating scale 0-100 (0 no damage, 100 complete death)
Outline: (§3)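 Foliar application, track sprayer with flat fan nozzle, 187 l/ha acetone + 0.25% v/v NIS, 8-1000 g ai/ha; plants at 2-3 leaves, sown 8-21 d before. Scored 0-100 at 14 DAA.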

[17] = tested on: velvetleaf (Abutilon theophrasti, ABT); experiment: Post-emerge test, velvetleaf; conditions: 250 g ai/ha, 14 days after application, rating scale 0-100 (0 no damage, 100 complete death)
Outline: as §3

[18] = tested on: sicklepod (Cassia obtusifolia, CAO); experiment: Post-emerge test, sicklepod; conditions: 250 g ai/ha, 14 days after application, rating scale 0-100 (0 no damage, 100 complete death)
Outline: as §3

[19] = tested on: ivyleaf morningglory (Ipomoea hederacea, IPH); experiment: Post-emerge test, ivyleaf morningglory; conditions: 250 g ai/ha, 14 days after application, rating scale 0-100 (0 no damage, 100 complete death)
Outline: as §3

[20] = tested on: lambsquarters (Chenopodium album, CHA); experiment: Post-emerge test, lambsquarters; conditions: 250 g ai/ha, 14 days after application, rating scale 0-100 (0 no damage, 100 complete death)
Outline: as §3

[21] = tested on: common ragweed (Ambrosia artemisiifolia L., AML); experiment: Post-emerge test, common ragweed; conditions: 250 g ai/ha, 14 days after application, rating scale 0-100 (0 no damage, 100 complete death)
Outline: as §3

[22] = tested on: cocklebur (Xanthium strumariunt, XAS); experiment: Post-emerge test, cocklebur; conditions: 250 g ai/ha, 14 days after application, rating scale 0-100 (0 no damage, 100 complete death)
Outline: as §3

[23] = tested on: green foxtail (Setaria viridis, SEV); experiment: Post-emerge test, green foxtail; conditions: 250 g ai/ha, 14 days after application, rating scale 0-100 (0 no damage, 100 complete death)
Outline: as §3

[24] = tested on: barnyardgrass (Echinachloa crus-galli, ECC); experiment: Post-emerge test, barnyardgrass; conditions: 250 g ai/ha, 14 days after application, rating scale 0-100 (0 no damage, 100 complete death)
Outline: as §3

[25] = tested on: johnsongrass (Sorghum halepense, SOH); experiment: Post-emerge test, johnsongrass; conditions: 250 g ai/ha, 14 days after application, rating scale 0-100 (0 no damage, 100 complete death)
Outline: as §3

[26] = tested on: large crabgrass (Digitaria sanguinalis, DIS); experiment: Post-emerge test, large crabgrass; conditions: 250 g ai/ha, 14 days after application, rating scale 0-100 (0 no damage, 100 complete death)
Outline: as §3

[27] = tested on: field corn (Zea mays L., var. Dekalb 535, CORN); experiment: Post-emerge test, crop damage field corn; conditions: post-emerge, 250 g ai/ha, 14 days after application, rating scale 0-100 (0 no damage, 100 complete death)
Outline: as §3

[28] = tested on: soybean (Glycine max L., var. Pella 86, SOY); experiment: Post-emerge test, crop damage soybean; conditions: post-emerge, 250 g ai/ha, 14 days after application, rating scale 0-100 (0 no damage, 100 complete death)
Outline: as §3

[29] = tested on: upland rice (Oryza sp., var.Tebonnet, RICE); experiment: Post-emerge test, crop damage upland rice; conditions: post-emerge, 250 g ai/ha, 14 days after application, rating scale 0-100 (0 no damage, 100 complete death)
Outline: as §3

[30] = tested on: wheat (Triticum aestivum); experiment: Post-emerge test, crop damage wheat; conditions: post-emerge, 250 g ai/ha, 14 days after application, rating scale 0-100 (0 no damage, 100 complete death)
Outline: as §3

Row | SMILES | Pre-emerge Herbicidal Activity AMR (phytotoxicity rating) [1] | Pre-emerge Herbicidal Activity ABT (phytotoxicity rating) [2] | Pre-emerge Herbicidal Activity CAO (phytotoxicity rating) [3] | Pre-emerge Herbicidal Activity IPH (phytotoxicity rating) [4] | Pre-emerge Herbicidal Activity CHA (phytotoxicity rating) [5] | Pre-emerge Herbicidal Activity AML (phytotoxicity rating) [6] | Pre-emerge Herbicidal Activity XAS (phytotoxicity rating) [7] | Pre-emerge Herbicidal Activity SEV (phytotoxicity rating) [8] | Pre-emerge Herbicidal Activity ECC (phytotoxicity rating) [9] | Pre-emerge Herbicidal Activity SOH (phytotoxicity rating) [10] | Pre-emerge Herbicidal Activity DIS (phytotoxicity rating) [11] | Pre-emerge crop damage CORN (phytotoxicity rating) [12] | Pre-emerge crop damage SOY (phytotoxicity rating) [13] | Pre-emerge crop damage RICE (phytotoxicity rating) [14] | Pre-emerge crop damage WHEAT (phytotoxicity rating) [15] | Post-emerge Herbicidal Activity AMR (phytotoxicity rating) [16] | Post-emerge Herbicidal Activity ABT (phytotoxicity rating) [17] | Post-emerge Herbicidal Activity CAO (phytotoxicity rating) [18] | Post-emerge Herbicidal Activity IPH (phytotoxicity rating) [19] | Post-emerge Herbicidal Activity CHA (phytotoxicity rating) [20] | other results
1 | CC1Oc2cc(F)c(-c3nn(C)c(OC(F)F)c3Cl)c3c2N(CC(=O)N3)C1=O (stereo not drawn) [1-56] | 100 | 100 | 100 | 100 | 100 | 100 | 100 | 100 | 100 | 100 | 100 | 50 | 15 | 75 | 55 | 100 | 100 | 100 | 100 | 100 | Post-emerge Herbicidal Activity AML (phytotoxicity rating) [21]: 100; Post-emerge Herbicidal Activity XAS (phytotoxicity rating) [22]: 100; Post-emerge Herbicidal Activity SEV (phytotoxicity rating) [23]: 100; Post-emerge Herbicidal Activity ECC (phytotoxicity rating) [24]: 100; Post-emerge Herbicidal Activity SOH (phytotoxicity rating) [25]: 85; Post-emerge Herbicidal Activity DIS (phytotoxicity rating) [26]: 100; Post-emerge crop damage CORN (phytotoxicity rating) [27]: 20; Post-emerge crop damage SOY (phytotoxicity rating) [28]: 100; Post-emerge crop damage RICE (phytotoxicity rating) [29]: 99; Post-emerge crop damage WHEAT (phytotoxicity rating) [30]: 30
2 | CC1Oc2cc(F)c(-c3nn(C)c(C(F)(F)F)c3Cl)c3c2N(C1=O)C(C(C)C)C(=O)N3 (mixture of isomers) [1-53] | 100 | 100 | 100 | 95 | 100 | 95 | 100 | 99 | 95 | 90 | 98 | 25 | 50 | 5 | 15 | 100 | 100 | 50 | 100 | 100 | Post-emerge Herbicidal Activity AML (phytotoxicity rating) [21]: 75; Post-emerge Herbicidal Activity XAS (phytotoxicity rating) [22]: 100; Post-emerge Herbicidal Activity SEV (phytotoxicity rating) [23]: 60; Post-emerge Herbicidal Activity ECC (phytotoxicity rating) [24]: 70; Post-emerge Herbicidal Activity SOH (phytotoxicity rating) [25]: 0; Post-emerge Herbicidal Activity DIS (phytotoxicity rating) [26]: 0; Post-emerge crop damage CORN (phytotoxicity rating) [27]: 5; Post-emerge crop damage SOY (phytotoxicity rating) [28]: 20; Post-emerge crop damage RICE (phytotoxicity rating) [29]: 0; Post-emerge crop damage WHEAT (phytotoxicity rating) [30]: 10
3 | CC1Oc2cc(F)c(-c3nn(C)c(C(F)(F)F)c3Cl)c3c2N(C1=O)C(C)C(=O)N3 (mixture of isomers) [1-51] | 100 | 100 | 100 | 98 | 100 | 100 | 99 | 100 | 100 | 100 | 100 | 70 | 65 | 70 | 60 | 100 | 100 | 100 | 100 | 100 | Post-emerge Herbicidal Activity AML (phytotoxicity rating) [21]: 85; Post-emerge Herbicidal Activity XAS (phytotoxicity rating) [22]: 100; Post-emerge Herbicidal Activity SEV (phytotoxicity rating) [23]: 100; Post-emerge Herbicidal Activity ECC (phytotoxicity rating) [24]: 100; Post-emerge Herbicidal Activity SOH (phytotoxicity rating) [25]: 80; Post-emerge Herbicidal Activity DIS (phytotoxicity rating) [26]: 90; Post-emerge crop damage CORN (phytotoxicity rating) [27]: 50; Post-emerge crop damage SOY (phytotoxicity rating) [28]: 60; Post-emerge crop damage RICE (phytotoxicity rating) [29]: 75; Post-emerge crop damage WHEAT (phytotoxicity rating) [30]: 60
